# Laboratory results: ChEMBL document CHEMBL1149878, “Tetramic and tetronic acids: an update on new derivatives and biological aspects” (Bioorg Med Chem, 2008)
# Where a SMILES comes first, the peptide text is derived from it. [ ]: non-standard residue; d: D form. The star is where a group is joined. X1 = COC1=CC(=O)N(C(=O)[C@@H](O*)C(C)C)[C@H]1Cc1ccccc1; NMe2Val = CC(C)[C@@H](C(=O)*)N(C)C; NMeV = CN[C@H](C(=O)O)C(C)C
# Assays:
# [1] = tested on: A549; assay: Growth inhibition of human A549 cells by MTT assay after 24 hrs; format: functional, cell-based; conditions: A549, 24 h
# [2] = tested on: HL-60; assay: Growth inhibition of human HL60 cells by MTT assay after 24 hrs; format: functional, cell-based; conditions: HL-60, 24 h
# [3] = tested on: P388; assay: Growth inhibition of mouse P388 cells by MTT assay after 24 hrs; format: functional, cell-based; conditions: P388, 24 h
# [4] = tested on: Bel-7402; assay: Growth inhibition of human Bel7402 cells by MTT assay after 24 hrs; format: functional, cell-based; conditions: Bel-7402, 24 h
# [5] = Toxicity in rat; format: organism-based; conditions: in vivo, read-out: LC50 (the source's name)
# [6] = tested on: A549; assay: Cytotoxicity against human A549 cells; format: functional, cell-based
# [7] = tested on: HCT-15; assay: Cytotoxicity against human HCT15 cells; format: functional, cell-based
# [8] = tested on: XF498; assay: Cytotoxicity against human XF498 cells; format: functional, cell-based
# [9] = tested on: SK-MEL-2; assay: Cytotoxicity against human SK-Mel-2 cells; format: functional, cell-based
# [10] = tested on: SK-OV-3; assay: Cytotoxicity against human SK-OV-3 cells; format: functional, cell-based
# [11] = target: Glutamate NMDA receptor (Rattus norvegicus) (UniProt P35439+Q00959+Q00960+Q00961+Q62645+Q8VHN2+Q9R1M7); assay: Antagonist activity at NMDA receptor in rat cortex assessed as inhibition of NMDA-induced depolarization; format: functional, tissue-based
# [12] = target: Glutamate NMDA receptor; assay: Displacement of [3H]L689560 from glycine site of rat NMDA receptor; format: protein-complex assay
# [13] = tested on: Escherichia coli; assay: Antimicrobial activity against Escherichia coli; format: functional
# [14] = Inhibition of Escherichia coli MurB
# [15] = tested on: Staphylococcus aureus; assay: Antimicrobial activity against Staphylococcus aureus; format: functional
# [16] = tested on: Staphylococcus aureus; assay: Antimicrobial activity against methicillin-resistant Staphylococcus aureus F597; format: functional
# [17] = tested on: Plasmodium falciparum; assay: Antiplasmodial activity against Plasmodium falciparum after 72 hrs; format: functional, organism-based
# [18] = target: Human immunodeficiency virus type 1 integrase (Human immunodeficiency virus 1, UniProt Q7ZJM1); assay: Inhibition of HIV1 integrase strand transfer activity
# [19] = Inhibition of HCV NS5B polymerase; set-up: species or system Hepacivirus hominis
# [20] = tested on: Enterococcus faecalis; assay: Antimicrobial activity against Enterococcus faecalis; format: functional
# [21] = Inhibition of Escherichia coli H560 DNA gyrase
# [22] = tested on: L929; assay: Growth inhibition of mouse L929 cells; format: cell-based
# [23] = tested on: A498; assay: Growth inhibition of human A498 cells; format: functional, cell-based
# [24] = tested on: HeLa; assay: Growth inhibition of human HeLa cells; format: functional, cell-based
# [25] = Growth inhibition of human KB3-1 cells; format: functional, cell-based; conditions: KB 3-1
# [26] = Selectivity for cdc25B over VHR
# [27] = target: M-phase inducer phosphatase 2 (Homo sapiens, UniProt P30305); assay: Inhibition of cdc25B
# [28] = tested on: Enterococcus faecalis; assay: Growth inhibition of multidrug resistant Enterococcus faecalis; format: functional, organism-based
# [29] = tested on: Staphylococcus aureus; assay: Growth inhibition of multidrug resistant Staphylococcus aureus; format: functional, organism-based
# [30] = tested on: Phocaeicola vulgatus; assay: Antimicrobial activity against Bacteroides vulgatus; format: functional
# [31] = tested on: Fusobacterium nucleatum; assay: Antimicrobial activity against Fusobacterium nucleatum; format: functional
# [32] = tested on: Bacteroides sp.; assay: Antimicrobial activity against Bacteroides melaninogenicus; format: functional
# [33] = tested on: Bacteroides fragilis; assay: Antimicrobial activity against Bacteroides fragilis; format: functional
# [34] = tested on: Clostridioides difficile; assay: Antimicrobial activity against Clostridium difficile; format: functional
# [35] = tested on: Eubacterium limosum; assay: Antimicrobial activity against Eubacterium limosum; format: functional
# [36] = tested on: Fusobacterium necrophorum; assay: Antimicrobial activity against Fusobacterium necrophorum; format: functional
# [37] = tested on: Streptococcus constellatus; assay: Antimicrobial activity against Streptococcus constellatus; format: functional
# [38] = tested on: Bifidobacterium longum; assay: Antimicrobial activity against Bifidobacterium longum; format: functional
# [39] = tested on: Enterococcus; assay: Growth inhibition of multidrug resistant Enterococcus; format: functional
# [40] = tested on: Legionella; assay: Antimicrobial activity against Legionella; format: functional
# [41] = tested on: Enterococcus; assay: Antimicrobial activity against Enterococcus; format: functional
# [42] = tested on: Streptococcus equinus; assay: Antimicrobial activity against Streptococcus bovis A5169; format: functional
# [43] = tested on: Streptococcus pyogenes; assay: Antimicrobial activity against Streptococcus pyogenes 930; format: functional
# [44] = target: Beta-secretase 1 (Homo sapiens, UniProt P56817); assay: Inhibition of BACE1 by FRET assay
# [45] = tested on: B16; assay: Cytotoxicity against mouse B16 cells; format: functional, cell-based
# Chain of Beta-secretase 1 (P56817 whole entry): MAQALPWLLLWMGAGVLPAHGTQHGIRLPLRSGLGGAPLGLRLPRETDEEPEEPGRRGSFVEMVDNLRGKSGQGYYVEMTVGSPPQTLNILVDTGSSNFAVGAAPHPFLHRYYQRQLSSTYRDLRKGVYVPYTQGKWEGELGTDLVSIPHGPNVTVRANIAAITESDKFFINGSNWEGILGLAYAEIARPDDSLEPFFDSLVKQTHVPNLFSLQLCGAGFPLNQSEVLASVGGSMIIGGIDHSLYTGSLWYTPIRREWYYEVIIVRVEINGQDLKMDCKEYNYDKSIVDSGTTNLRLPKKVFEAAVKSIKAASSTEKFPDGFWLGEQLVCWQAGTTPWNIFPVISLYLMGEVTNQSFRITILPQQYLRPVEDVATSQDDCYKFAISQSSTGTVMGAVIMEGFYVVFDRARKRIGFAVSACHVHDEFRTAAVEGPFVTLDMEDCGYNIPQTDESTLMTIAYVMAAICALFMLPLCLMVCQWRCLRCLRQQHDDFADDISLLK
# Chain of M-phase inducer phosphatase 2 (P30305 whole entry): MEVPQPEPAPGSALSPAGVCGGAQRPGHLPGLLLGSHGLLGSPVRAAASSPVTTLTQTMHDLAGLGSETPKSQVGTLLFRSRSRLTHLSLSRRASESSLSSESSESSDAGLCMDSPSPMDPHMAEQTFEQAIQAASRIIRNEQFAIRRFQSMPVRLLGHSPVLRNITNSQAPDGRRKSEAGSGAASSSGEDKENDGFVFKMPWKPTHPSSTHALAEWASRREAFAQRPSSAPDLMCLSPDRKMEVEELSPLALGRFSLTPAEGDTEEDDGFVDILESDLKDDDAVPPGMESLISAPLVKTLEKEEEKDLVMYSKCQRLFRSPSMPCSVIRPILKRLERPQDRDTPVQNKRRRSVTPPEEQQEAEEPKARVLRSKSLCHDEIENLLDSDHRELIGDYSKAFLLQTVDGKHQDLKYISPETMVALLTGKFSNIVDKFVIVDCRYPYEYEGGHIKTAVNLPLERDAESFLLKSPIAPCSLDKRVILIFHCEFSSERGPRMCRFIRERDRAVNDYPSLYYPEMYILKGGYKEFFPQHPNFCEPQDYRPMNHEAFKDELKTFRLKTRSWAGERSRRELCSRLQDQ
# Chain of Human immunodeficiency virus type 1 integrase (Q7ZJM1 whole entry): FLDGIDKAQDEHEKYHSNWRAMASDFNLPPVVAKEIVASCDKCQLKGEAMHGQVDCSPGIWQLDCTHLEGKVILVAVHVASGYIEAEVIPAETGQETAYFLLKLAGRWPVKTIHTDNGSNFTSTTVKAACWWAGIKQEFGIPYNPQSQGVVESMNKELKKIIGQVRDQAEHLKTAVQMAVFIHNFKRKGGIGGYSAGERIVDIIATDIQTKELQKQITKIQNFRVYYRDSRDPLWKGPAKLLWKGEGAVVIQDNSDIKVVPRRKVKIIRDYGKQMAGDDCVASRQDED
smiles,measurement,setting,value
C/C=C1/C(=O)/C(=C(/O)C(C)CCCCCC)C(=O)N1C (stereo unspecified) [PENICILLENOL B1],IC50,[1],> 100 µM
same,IC50,[2],3.2 µM
same,IC50,[3],> 100 µM
same,IC50,[4],> 100 µM
CC(=O)C1=C(O)[C@@H]2[C@H]3c4c[nH]c5cccc(c45)C[C@H]3C(C)(C)N2C1=O [CYCLOPIAZONIC ACID],LD50,[5],30 mg/kg
C=C1C=C(CCC/C(C)=C/C=C/[C@H](C)CC/C=C(/C)CC2OC(=O)C(C)=C2O)C(=O)N1CCC(C)C (stereo partly drawn) [(R)-SARCOTRINE A],IC50,[6],3.4 mg/L
same,IC50,[7],3.4 mg/L
same,IC50,[8],3.4 mg/L
same,IC50,[9],3.4 mg/L
same,IC50,[10],3.4 mg/L
CC/C=C1\NC(=O)C(c2cccc(Oc3ccccc3)c2)=C1O,Kb,[11],6.15 µM
same,IC50,[12],0.7 µM
O=C1O/C(=C\c2cccc3ccccc23)C(O)=C1c1cc(Cl)cc(Cl)c1,MIC,[13],1 mg/L
same,IC50,[14],21 µM
same,Kd,[14],0.04 µM
same,MIC,[15],1 mg/L
CC1=C[C@H]2[C@H](O)CC[C@@](C)(/C(O)=C3/C(=O)CNC3=O)[C@H]2C[C@@H]1CCC(C)C(O)/C(C)=C/CC(O)/C=C/C(C)C(O)/C=C/CC(O)/C=C/CC(O)CC1CCCN1C(=N)N (stereo partly specified) [TPU-0037 A],MIC,[16],3.13 mg/L
C/C=C1\C(=O)/C(=C(/O)C(C)CCCCCC)C(=O)N1C (stereo unspecified) [PENICILLENOL B2],IC50,[1],> 100 µM
same,IC50,[3],> 100 µM
same,IC50,[4],> 100 µM
COC1=CC(=O)N(C(=O)[C@@H](OC(=O)[C@@H]2CCCN2C(=O)[C@@H]2CCCN2C(=O)[C@H](C(C)C)N(C)C(=O)[C@@H](NC(=O)[C@H](C(C)C)N(C)C)C(C)C)C(C)C)[C@H]1Cc1ccccc1 [DOLASTATIN 15] (NMe2Val-V[NMeV]PP-X1),IC50,[17],0.2 µM
CC1=C[C@@H]2CC[C@@H](O)[C@H](C)[C@@H]2[C@@H](C(=O)C2=C(O)C(O)NC2=O)[C@@H]1C[C@H]1O[C@@]2(CC[C@H](C)[C@@H](c3cc(O)cc(O)c3)O2)[C@@H](C)C[C@@H]1C (stereo partly specified) [INTEGRAMYCIN],IC50,[18],4 µM
CC(C)(C)CN1C(=O)C(C2=NS(=O)(=O)c3ccccc3N2)=C(O)[C@@H]1C(C)(C)C,IC50,[19],0.0017 µM
C/C=C/CCCC(C)/C(O)=C1\C(=O)[C@@H]([C@@H](C)O)N(C)C1=O (stereo partly specified) [PENICILLENOL C2],IC50,[1],> 100 µM
same,IC50,[2],> 100 µM
same,IC50,[3],> 100 µM
same,IC50,[4],> 100 µM
C/C(=C\CC(O)CC(O)CCC(C)C(O)C(C)C(O)CCCC(O)C(C)C(O)/C(C)=C/C(C)C(=O)/C(C)=C/C(O)C(O)CC(O)CC(OC1OC(C)C(O)C(N)C1O)C(C)CCC(O)CC(O)CCC(C)C(O)C(C)C(O)C(C)C)C(=O)C1=C(O)/C(=C/C(C)C)N(C)C1=O (stereo unspecified) [VANCORESMYCIN],MIC,[20],0.3 mg/L
same,MIC,[15],< 0.04 mg/L
CCn1cc(C(=O)O)c(=O)c2cc(F)c(N3CCNCC3)cc21 [NORFLOXACIN],IC50,[21],1 mg/L
C=C1C=C(CCC/C(C)=C/C=C/[C@@H](C)CC/C=C(/C)CC2OC(=O)C(C)=C2O)C(=O)N1CCC(C)C (stereo partly drawn) [(S)-SARCOTRINE A],IC50,[6],3.4 mg/L
same,IC50,[7],3.4 mg/L
same,IC50,[8],3.4 mg/L
same,IC50,[9],3.4 mg/L
same,IC50,[10],3.4 mg/L
CCCCCCC(C)/C(O)=C1\C(=O)[C@H]([C@H](C)O)N(C)C1=O (stereo partly specified) [PENICILLENOL A1],IC50,[2],0.76 µM
CCC(C)CCCCCCCCCC/C(O)=C1\C(=O)C(C)N(C)C1=O (stereo unspecified) [MELOPHLIN R],IC50,[22],< 10 µM
same,IC50,[23],< 10 µM
same,IC50,[24],< 10 µM
same,IC50,[25],< 10 µM
CCCCCCCCCCCCCCCC(=O)C1=C(O)[C@@H](COC(=O)N=C=NC(=O)OCC)OC1=O,Selectivity ratio,[26],30
same,IC50,[27],0.4 µM
CC(C)CCCCCCCCCCC/C(O)=C1\C(=O)C(C)N(C)C1=O (stereo unspecified) [MELOPHLIN Q],IC50,[23],3.4 µM
C/C=C/CCCC(C)/C(O)=C1\C(=O)[C@H]([C@H](C)O)N(C)C1=O (stereo partly specified) [PENICILLENOL C1],IC50,[1],> 100 µM
same,IC50,[2],> 100 µM
same,IC50,[3],> 100 µM
same,IC50,[4],> 100 µM
C[C@@H]1CC[C@@H]2[C@H](C=C[C@@H](C)[C@@]2(C)/C(O)=C2/C(=O)[C@H]([C@H](C)O)N(C)C2=O)C1,IC50,[28],20 mg/L
same,IC50,[29],10 mg/L
same,IC90,[24],7.1 mg/L
C=C1OC(=O)/C(=C(\O)CCCCCCCCC)C1=O [AGGLOMERIN A],MIC,[30],3.13 mg/L
same,MIC,[31],6.25 mg/L
same,MIC,[32],6.25 mg/L
same,MIC,[33],3.13 mg/L
same,MIC,[34],3.13 mg/L
same,MIC,[35],6.25 mg/L
same,MIC,[36],6.25 mg/L
same,MIC,[37],3.13 mg/L
same,MIC,[38],6.25 mg/L
CCCCCCCCC(C)CC/C(O)=C1\C(=O)[C@H](C)N(C)C1=O (stereo partly specified) [MELOPHLIN B],IC50,[22],< 10 µM
same,IC50,[23],< 10 µM
same,IC50,[24],< 10 µM
same,IC50,[25],< 10 µM
C/C=C/C=C/[C@@H]1C(C)=C[C@@H]2C[C@H](C)CC[C@H]2[C@]1(C)/C(O)=C1\C(=O)N[C@@H]([C@H](C)O)C1=O [CONIOSETIN],MIC,[29],0.3 mg/L
same,MIC,[39],2.5 mg/L
CCCCCCCC(C)CCC/C(O)=C1\C(=O)C(C)N(C)C1=O (stereo unspecified) [MELOPHLIN C],IC50,[22],< 10 µM
same,IC50,[23],< 10 µM
same,IC50,[24],< 10 µM
same,IC50,[25],< 10 µM
CC(/C=C/C(O)=C1\C(=O)CNC1=O)=C\c1ccc2ccccc2c1,IC50,[21],3.5 mg/L
CC(/C=C/C(O)=C1/C(=O)CNC1=O)=C\[C@@H](C)[C@H]1O[C@@]2(C)O[C@@H](C=C[C@@]23CO3)[C@H]1C [TIRANDALYDIGIN],MIC,[40],> 32 mg/L
same,MIC,[33],0.5 mg/L
same,MIC,[41],> 16 mg/L
same,MIC,[42],12.5 mg/L
same,MIC,[43],3.1 mg/L
CCC(C)C1NC(=O)C(SCc2cccc(C(F)(F)F)c2)=C1O (stereo unspecified),IC50,[44],60 µM
C[C@H]1C=CC2C1C[C@H]1/C=C/CC/C(O)=C3/C(=O)N[C@H](C3=O)[C@@H](O)CCNC(=O)/C=C/C=C\C[C@H]21 (stereo partly specified) [CYLINDRAMIDE],IC50,[45],0.8 mg/L
CC(/C=C/C(=O)C1=C(O)CN(C)C1=O)=C\c1ccc2ccccc2c1,IC50,[21],10.3 mg/L
CCCCCCC(C)/C(O)=C1\C(=O)[C@@H]([C@@H](C)O)N(C)C1=O (stereo partly specified) [PENICILLENOL A2],IC50,[1],> 100 µM
same,IC50,[3],> 100 µM
same,IC50,[4],> 100 µM
